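Exposure lasted 48 hours, with cells grown in 96-well plates and compounds tested at five concentrations. The concentration for full growth arrest is given as TGI.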
Columns and labels:
Assay in all cases: NCI-60 cell line screen, 48 h
[1] = test system: SK-MEL-2 melanoma
[2] = test system: SK-OV-3 ovarian
[3] = test system: SNB-19 CNS
[4] = test system: OVCAR-4 ovarian
[5] = test system: ACHN renal
[6] = test system: BT-549 breast
[7] = test system: SNB-75 CNS
[8] = test system: T-47D breast
[9] = test system: OVCAR-8 ovarian
[10] = test system: IGROV1 ovarian
[11] = test system: PC-3 prostate
[12] = test system: RPMI-8226 leukemia
[13] = test system: HCT-116 colon
[14] = test system: UO-31 renal
[15] = test system: HCT-15 colon
[16] = test system: HT29 colon
[17] = test system: MCF7 breast
[18] = test system: HS 578T breast
[19] = test system: M14 melanoma
[20] = test system: NCI-H226 lung
[21] = test system: SF-539 CNS
[22] = test system: SF-295 CNS
[23] = test system: HL-60(TB) leukemia
[24] = test system: MDA-MB-435
[25] = test system: OVCAR-3 ovarian
[26] = test system: SK-MEL-28 melanoma
[27] = test system: SW-620 colon
[28] = test system: MDA-N
[29] = test system: 786-0 renal
[30] = test system: MOLT-4 leukemia
[31] = test system: LOX IMVI melanoma
[32] = test system: NCI/ADR-RES ovarian
[33] = test system: A549 NSCLC
[34] = test system: SF-268 CNS
[35] = test system: NCI-H23 lung
[36] = test system: MALME-3M melanoma
[37] = test system: DU-145 prostate
[38] = test system: SK-MEL-5 melanoma
[39] = test system: COLO 205 colon
[40] = test system: EKVX NSCLC
[41] = test system: CCRF-CEM leukemia
[42] = test system: KM12 colon
[43] = test system: SN12C renal
[44] = test system: A498 renal
[45] = test system: CAKI-1 renal
[46] = test system: UACC-62 melanoma
[47] = test system: K-562 leukemia
[48] = test system: HOP-92 NSCLC
[49] = test system: SR leukemia
[50] = test system: NCI-H522 lung
[51] = test system: HOP-62 NSCLC
[52] = test system: RXF 393 renal
[53] = test system: TK-10 renal
[54] = test system: MDA-MB-231 breast
[55] = test system: NCI-H460 lung
[56] = test system: U251 CNS
[57] = test system: OVCAR-5 ovarian
[58] = test system: UACC-257 melanoma

CCC(=O)Nc1ccc(N=Cc2cccc(Oc3ccccc3)c2)cc1
TGI [1]: > 100 µM | TGI [2]: > 100 µM | TGI [3]: > 100 µM | TGI [4]: > 100 µM | TGI [5]: > 100 µM | TGI [6]: > 100 µM | TGI [7]: > 100 µM | TGI [8]: > 100 µM | TGI [9]: 49.1 µM | TGI [10]: > 100 µM | TGI [11]: > 100 µM | TGI [12]: 63.1 µM | TGI [13]: > 100 µM | TGI [14]: > 100 µM | TGI [15]: > 100 µM | TGI [16]: > 100 µM | TGI [17]: > 100 µM | TGI [18]: > 100 µM | TGI [19]: > 100 µM | TGI [20]: > 100 µM | TGI [21]: 35.9 µM | TGI [22]: > 100 µM | TGI [23]: 63 µM | TGI [24]: > 100 µM | TGI [25]: > 100 µM | TGI [26]: > 100 µM | TGI [27]: > 100 µM | TGI [28]: > 100 µM | TGI [29]: > 100 µM | TGI [30]: 76.8 µM | TGI [31]: > 100 µM | TGI [32]: > 100 µM | TGI [33]: > 100 µM | TGI [34]: > 100 µM | TGI [35]: > 100 µM | TGI [36]: > 100 µM | TGI [37]: > 100 µM | TGI [38]: > 100 µM | TGI [39]: > 100 µM | TGI [40]: > 100 µM | TGI [41]: 63.9 µM | TGI [42]: > 100 µM | TGI [43]: > 100 µM | TGI [44]: > 100 µM | TGI [45]: > 100 µM | TGI [46]: > 100 µM | TGI [47]: > 100 µM | TGI [48]: > 100 µM | TGI [49]: 67.9 µM | TGI [50]: > 100 µM | TGI [51]: > 100 µM | TGI [52]: > 100 µM

CC(C)=CC1C(COC(=O)c2cc3c(cc2Cl)OCO3)C1(C)C (centres undefined)
TGI [1]: 40.6 µM | TGI [3]: > 100 µM | TGI [4]: > 100 µM | TGI [5]: > 100 µM | TGI [6]: 81.8 µM | TGI [53]: > 100 µM | TGI [8]: > 100 µM | TGI [9]: > 100 µM | TGI [10]: > 100 µM | TGI [11]: > 100 µM | TGI [13]: > 100 µM | TGI [14]: > 100 µM | TGI [15]: 92.6 µM | TGI [16]: > 100 µM | TGI [18]: 53.8 µM | TGI [19]: > 100 µM | TGI [20]: 91.2 µM | TGI [54]: > 100 µM | TGI [55]: > 100 µM | TGI [22]: > 100 µM | TGI [23]: 47.6 µM | TGI [24]: > 100 µM | TGI [56]: 86 µM | TGI [25]: 65.1 µM | TGI [26]: > 100 µM | TGI [27]: > 100 µM | TGI [28]: > 100 µM | TGI [29]: > 100 µM | TGI [30]: > 100 µM | TGI [31]: 50 µM | TGI [32]: > 100 µM | TGI [33]: > 100 µM | TGI [34]: 65.8 µM | TGI [35]: > 100 µM | TGI [36]: 41.6 µM | TGI [37]: > 100 µM | TGI [38]: 39.6 µM | TGI [40]: > 100 µM | TGI [41]: > 100 µM | TGI [42]: > 100 µM | TGI [43]: > 100 µM | TGI [44]: 90.6 µM | TGI [57]: > 100 µM | TGI [45]: 69.7 µM | TGI [46]: > 100 µM | TGI [47]: > 100 µM | TGI [48]: 78 µM | TGI [49]: 78.3 µM | TGI [50]: 46.4 µM | TGI [51]: > 100 µM | TGI [52]: 48.9 µM | TGI [58]: > 100 µM
